The record followed here is patent US8895695B2, “Template-fixed beta-hairpin peptidomimetics with CXCR4 antagonizing activity” (priority 2003, dated 2014).

One series can be described thus: in vitro. The conditions noted are these: human, HELA cells (Acc57).
Series [1] has as its system 'CCR5' cells / Hut/4-3 cells co-cultivation. Kind of series: FIGS-Assay. The series is classed as cell-based. The conditions noted are these: 200 nM peptide, 48 hours of co-cultivation. The protocol:
The assay was performed according to ref. 5, below. Stock dilutions of the peptides (10 mM) were prepared by dissolving in 10 mM Tris-HCl at room temperature. Stock solutions were kept at +4° C., light protected. Working dilutions were prepared extemporaneously by serial dilution in Phosphate Buffered Saline (PBS) and added in a final volume of 10 μl directly to the cell cultures. After 48 hours of co-cultivation the cultures were rinsed with PBS and then exposed to glutaraldehyde/formaldehyde (0.2%/2%) in PBS for five minutes. For photometric quantification the fixed cultures were subsequently incubated with ortho-nitro-phenyl-galactopyranoside (ONPG) as a β-galactosidase substrate, which was enzymatically converted into the chromophore ortho-nitrophenol (ONP). The read out is directly obtained by measuring optical density of wells at 405 nm in an iEMS 96well-plate reader.
All fine chemicals came from Merck (Darmstadt, Germany).

Series [2] relates to human red blood cells (hRBC). The experiment in a line: Hemolysis. The series is classed as cell-based. A digest of the protocol: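 Percent lysis taken as OD540 of peptide-treated sample over OD540 of the water/0.1% Triton X-100 full-lysis control, with PBS giving 0%. Peptides at 100 μM exposed to PBS-washed human RBCs (20% v/v) for 1 hour at 37° C. before centrifugation and 20-fold dilution of supernatant.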

The target in another series is CXCR4 (Homo sapiens, UniProt P61073). The experiment in a line: Ca2+-assay method 1: CXCR4-antagonizing activity. The series is classed as cell-based. Also noted: expressed in transfected cells. The conditions noted are these: method 1 (Ex. 1-53), CXCR4 transfected pre-B cells, Fura-2; read-out: IC50 (nM) Ca^2+ assay. The protocol:
2.2. Ca^2+-Assay: CXCR4-Antagonizing Activity of the Peptides.
The cells were washed free from Fura-2-AM with a platelet centrifuge and resuspended in 800 μl MSB containing 5 mM D-Glucose. The peptides to be administered were diluted to a 100 fold end concentration in MSB/0.2% PPL, and 8 μl were injected. […] Measurements were done under continuous stirring at 37° C. The signal intension was calibrated with 3 mM CaCl2/[…] lonomycin (maximal fura-2-acetoxymethylester saturation) and 10 μM MnCl2 (minimal Fura-2-acetoxymethylester saturation) and [Ca^2+]i-changes are presented in % fora-2-acetoxymethylester saturation. The rate of [Ca^2+]i-changes was calculated on the basis of the initial [Ca^2+]i-changes and plotted in dependence of chemokine concentration to obtain a sigmoidal curve and to determine the IC50 values.
Osmolarity: 310 mOsm adjusted with NaOH or HCl, adjusted with H2O or PBS.
MSB plus: 5 mM D-glucose in MSB (50 mg/50 mL).
Fura 2-acetoxymethylester: 1 mM stock solution in dimethylsulfoxide.

Series [3] in a line: Cytotoxicity assay (MTT reduction), HELA cells.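 Also: MTT reduction read as absorbance at 595 nm, blank-corrected and expressed as percent growth relative to the time-zero cell reading, triplicate wells per concentration.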 The conditions noted are these: human, HELA cells (Acc57).

Structures are written as SMILES. Bridge positions count the residues as written; N and C are the ends. Square brackets hold non-standard residues; d marks the D form. Peptide text beside a SMILES is read from it. 2Nal = N[C@@H](Cc1ccc2ccccc2c1)C(=O)O; Cit = NC(=O)NCCC[C@H](N)C(=O)O

Chain of CXCR4 (P61073 whole entry): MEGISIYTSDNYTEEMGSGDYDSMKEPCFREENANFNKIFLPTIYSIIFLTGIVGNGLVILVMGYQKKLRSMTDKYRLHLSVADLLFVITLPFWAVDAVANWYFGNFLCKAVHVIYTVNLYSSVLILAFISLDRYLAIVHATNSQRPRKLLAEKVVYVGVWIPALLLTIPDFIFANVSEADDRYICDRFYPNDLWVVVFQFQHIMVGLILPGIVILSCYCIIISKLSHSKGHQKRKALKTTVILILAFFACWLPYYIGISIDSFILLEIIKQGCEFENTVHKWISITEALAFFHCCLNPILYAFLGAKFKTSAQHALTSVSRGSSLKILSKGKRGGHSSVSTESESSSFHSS

In turn, `CC(C)[C@@H]1NC(=O)[C@H](CCCNC(N)=O)NC(=O)[C@H](CCCNC(=N)N)NC(=O)[C@H](Cc2ccc(O)cc2)NC(=O)[C@@H]2CCCN2C(=O)[C@H]2CCCN2C(=O)[C@H](CCCCN)NC(=O)[C@H](CCCNC(N)=O)NC(=O)[C@H](Cc2ccc(O)cc2)NC(=O)[C@H](C(C)C)NC(=O)[C@H](Cc2ccc3ccccc3c2)NC(=O)[C@H](CCCNC(=N)N)NC(=O)[C@H](CCCNC(=N)N)NC(=O)[C@H]2CCCN2C(=O)CNC(=O)[C@H](CCCNC(=N)N)NC1=O` [compound 45] (cyclo(YR[Cit]VRG[dP]RR[2Nal]VY[Cit]K[dP]P)) showed a CC50 at 48 h in “in vitro” of 132 µM. In addition, in series [1], the “FIGS % inhibition at 200 nM” value was 65.1%. This compound yielded a Hemolysis at 100 μM in series [2] of 0.4%.
For `CC(C)[C@@H]1NC(=O)[C@H](CCCNC(=N)N)NC(=O)[C@@H]2CSSC[C@H](NC(=O)[C@H](Cc3ccc4ccccc4c3)NC(=O)[C@H](CCCNC(=N)N)NC(=O)[C@H](CCCNC(=N)N)NC(=O)CNC1=O)C(=O)N[C@@H](Cc1ccc(O)cc1)C(=O)N[C@@H](CCCNC(N)=O)C(=O)N[C@@H](CCCCN)C(=O)N1CCC[C@@H]1C(=O)N1CCC[C@H]1C(=O)N[C@@H](Cc1ccc(O)cc1)C(=O)N[C@@H](CCCNC(=N)N)C(=O)N[C@@H](CCCNC(N)=O)C(=O)N2` [compound 53] (cyclo(YR[Cit]CRVGRR[2Nal]CY[Cit]K[dP]P); disulfide 4-11), the “FIGS % inhibition at 200 nM” value in series [1] came to 91.8%. In addition, on CXCR4, the IC50 stood at 57.8 nM. This compound also showed a CC50 at 48 h in series [3] of 86 µM. The same compound came in with a Hemolysis at 100 μM in series [2] of 0.2%.
`CC(C)[C@@H]1NC(=O)[C@H](Cc2ccc3ccccc3c2)NC(=O)[C@H](CCCNC(=N)N)NC(=O)[C@H](CCCNC(=N)N)NC(=O)[C@H]2CCCN2C(=O)[C@H](Cc2ccccc2)NC(=O)[C@H](CCCNC(=N)N)NC(=O)[C@H](Cc2ccccc2)NC(=O)[C@H](CCCNC(N)=O)NC(=O)[C@H](CCCNC(=N)N)NC(=O)[C@H](Cc2ccc(O)cc2)NC(=O)[C@@H]2CCCN2C(=O)[C@H]2CCCN2C(=O)[C@H](CCCCN)NC(=O)[C@H](CCCNC(N)=O)NC(=O)[C@H](Cc2ccc(O)cc2)NC1=O` [compound 23] (cyclo(YR[Cit]FRF[dP]RR[2Nal]VY[Cit]K[dP]P)) showed a half-maximal cytotoxic concentration (CC50) at 48 h in the series “in vitro” of 49 µM. The IC50 on CXCR4 amounted to 1550 nM. This compound also yielded a Hemolysis at 100 μM in series [2] of 1.4%.
On the same counts, the results for `CC(C)[C@@H]1NC(=O)[C@H](Cc2ccc3ccccc3c2)NC(=O)[C@H](CCCNC(=N)N)NC(=O)[C@@H](CCCNC(=N)N)NC(=O)[C@H](CCCNC(=N)N)NC(=O)[C@H](C(C)C)NC(=O)[C@H](CCCNC(N)=O)NC(=O)[C@H](CCCNC(=N)N)NC(=O)[C@H](Cc2ccc(O)cc2)NC(=O)[C@@H]2CCCN2C(=O)[C@H]2CCCN2C(=O)[C@H](CCCCN)NC(=O)[C@H](CCCNC(N)=O)NC(=O)[C@H](Cc2ccc(O)cc2)NC1=O` [compound 2] (cyclo(YR[Cit]VR[dR]R[2Nal]VY[Cit]K[dP]P)) are 97 µM, 2830 nM and 0.9%.
For `CC(C)[C@@H]1NC(=O)[C@H](Cc2ccc3ccccc3c2)NC(=O)[C@H](CCCNC(=N)N)NC(=O)[C@H](CCCNC(=N)N)NC(=O)[C@H]2CCCN2C(=O)[C@H](C(C)C)NC(=O)[C@H](CCCNC(=N)N)NC(=O)[C@H](Cc2ccccc2)NC(=O)[C@H](CCCNC(N)=O)NC(=O)[C@H](CCCNC(=N)N)NC(=O)[C@H](Cc2ccc(O)cc2)NC(=O)[C@@H]2CCCN2C(=O)[C@H]2CCCN2C(=O)[C@H](CCCCN)NC(=O)[C@H](CCCNC(N)=O)NC(=O)[C@H](Cc2ccc(O)cc2)NC1=O` [compound 21] (cyclo(YR[Cit]FRV[dP]RR[2Nal]VY[Cit]K[dP]P)) the same measures were 114 µM, 550 nM and 0.6%.
On the same counts, the results for `CC(C)[C@@H]1NC(=O)[C@H](Cc2ccc3ccccc3c2)NC(=O)[C@H](CCCNC(=N)N)NC(=O)[C@H](CCCNC(=N)N)NC(=O)[C@@H]2CCCN2C(=O)[C@H](Cc2ccccc2)NC(=O)[C@H](CCCNC(=N)N)NC(=O)[C@H](Cc2ccccc2)NC(=O)[C@H](CCCNC(N)=O)NC(=O)[C@H](CCCNC(=N)N)NC(=O)[C@H](Cc2ccc(O)cc2)NC(=O)[C@@H]2CCCN2C(=O)[C@H]2CCCN2C(=O)[C@H](CCCCN)NC(=O)[C@H](CCCNC(N)=O)NC(=O)[C@H](Cc2ccc(O)cc2)NC1=O` [compound 24] (cyclo(YR[Cit]FRFPRR[2Nal]VY[Cit]K[dP]P)) are 108 µM, 850 nM and 0.7%.
As for `CC(C)[C@@H]1NC(=O)[C@H](CCCNC(=N)N)NC(=O)[C@H](Cc2ccccc2)NC(=O)[C@H](CCCNC(N)=O)NC(=O)[C@H](CCCNC(=N)N)NC(=O)[C@H](Cc2ccc(O)cc2)NC(=O)[C@@H]2CCCN2C(=O)[C@H]2CCCN2C(=O)[C@H](CCCCN)NC(=O)[C@H](CCCNC(N)=O)NC(=O)[C@H](Cc2ccc(O)cc2)NC(=O)[C@H](Cc2ccccc2)NC(=O)[C@H](Cc2ccc3ccccc3c2)NC(=O)[C@H](CCCNC(=N)N)NC(=O)[C@H](CCCNC(=N)N)NC(=O)[C@@H]2CCCN2C1=O` [compound 28] (cyclo(YR[Cit]FRVPRR[2Nal]FY[Cit]K[dP]P)), it took 117 µM to reach half-maximal cytotoxicity in “in vitro” (CC50 at 48 h). Besides, the 50% inhibitory concentration (IC50) at CXCR4 came to 2680 nM. In series [2], the Hemolysis at 100 μM amounted to 0.9%.
On the same counts, the results for `N=C(N)NCCC[C@@H]1NC(=O)[C@H](Cc2ccccc2)NC(=O)[C@H](CCCNC(N)=O)NC(=O)[C@H](CCCNC(=N)N)NC(=O)[C@H](Cc2ccc(O)cc2)NC(=O)[C@@H]2CCCN2C(=O)[C@H]2CCCN2C(=O)[C@H](CCCCN)NC(=O)[C@H](CCCNC(N)=O)NC(=O)[C@H](Cc2ccc(O)cc2)NC(=O)[C@H](Cc2ccccc2)NC(=O)[C@H](Cc2ccc3ccccc3c2)NC(=O)[C@H](CCCNC(=N)N)NC(=O)[C@H](CCCNC(=N)N)NC(=O)[C@H]2CCCN2C(=O)CNC1=O` [compound 38] (cyclo(YR[Cit]FRG[dP]RR[2Nal]FY[Cit]K[dP]P)) are 348 µM, 720 nM and 0.3%.
On the same counts, the results for `CC(C)[C@@H]1NC(=O)[C@H](CCCNC(N)=O)NC(=O)[C@H](CCCNC(=N)N)NC(=O)[C@H](Cc2ccc(O)cc2)NC(=O)[C@@H]2CCCN2C(=O)[C@H]2CCCN2C(=O)[C@H](CCCCN)NC(=O)[C@H](CCCNC(N)=O)NC(=O)[C@H](Cc2ccc(O)cc2)NC(=O)[C@H](C(C)C)NC(=O)[C@H](Cc2ccc3ccccc3c2)NC(=O)[C@H](CCCNC(=N)N)NC(=O)[C@H](CCCNC(=N)N)NC(=O)[C@H](CCCNC(=N)N)NC1=O` [Ex. 6] (cyclo(YR[Cit]VRRR[2Nal]VY[Cit]K[dP]P)) are 103 µM, 1930 nM and 0.6%.
In “in vitro”, `CC(C)[C@@H]1NC(=O)[C@H](Cc2ccc3ccccc3c2)NC(=O)[C@H](CCCNC(=N)N)NC(=O)[C@H](CCCNC(=N)N)NC(=O)[C@H]2CCCN2C(=O)[C@H](CCCNC(N)=O)NC(=O)[C@H](CCCNC(=N)N)NC(=O)[C@H](C(C)C)NC(=O)[C@H](CCCNC(N)=O)NC(=O)[C@H](CCCNC(=N)N)NC(=O)[C@H](Cc2ccc(O)cc2)NC(=O)[C@@H]2CCCN2C(=O)[C@H]2CCCN2C(=O)[C@H](CCCCN)NC(=O)[C@H](CCCNC(N)=O)NC(=O)[C@H](Cc2ccc(O)cc2)NC1=O` [compound 25] (cyclo(YR[Cit]VR[Cit][dP]RR[2Nal]VY[Cit]K[dP]P)) had a CC50 at 48 h of 108 µM. Moreover, on CXCR4, the concentration for half-maximal inhibition (IC50) was 1000 nM. In series [2], this compound showed a Hemolysis at 100 μM of 0%.
On the same counts, the results for `CC(C)[C@@H]1NC(=O)[C@H](CCCNC(N)=O)NC(=O)[C@H](CCCNC(=N)N)NC(=O)[C@H](Cc2ccc(O)cc2)NC(=O)[C@@H]2CCCN2C(=O)[C@H]2CCCN2C(=O)[C@H](CCCCN)NC(=O)[C@H](CCCNC(N)=O)NC(=O)[C@H](Cc2ccc(O)cc2)NC(=O)[C@H](Cc2ccccc2)NC(=O)[C@H](Cc2ccc3ccccc3c2)NC(=O)[C@H](CCCNC(=N)N)NC(=O)[C@@H](CCCNC(=N)N)NC(=O)[C@H](CCCNC(=N)N)NC1=O` [Ex. 1] (cyclo(YR[Cit]VR[dR]R[2Nal]FY[Cit]K[dP]P)) are 82 µM, 2280 nM and 1.6%.

Broadly, the CC50 is the concentration at which the toxic effect on the cells reaches its halfway point. Higher therefore signals better tolerance by the cells. The IC50 is the point on the concentration scale where inhibition reaches its midpoint.
